Source: article PMC5982655, “Interaction of the New Monofunctional Anticancer Agent Phenanthriplatin With Transporters for Organic Cations” (Frontiers in Chemistry, 2018)
pEC50, pIC50: −log10 of the molar value.

Columns and labels:
[1] = system: UW228 cells; assay: MTT cell viability, UW228 medulloblastoma cells; assay type: cell-based
Method: A modified 3-(4,5-dimethylthiazol-2-yl)-2,5-diphenyltetrazolium bromide (MTT) assay (Mosmann, [1983]) was used to test the chemosensitivity of cells to phenanthriplatin and, in some experiments, to cisplatin by determining the glycolysis rate via the reduction of the yellow tetrazolium salt MTT to a purple formazan dye, as previously described (Wehe et al., [2014]). Briefly, after growing for 24 h in the incubator, cells expressing or not hOCT2, hMATE1, hMATE2 or Ctr1 were treated for 10 min with platinum derivatives. Control cells were incubated with drug-free complete cell culture medium. Afterwards, the medium was carefully removed and replaced by 200 μL of fresh complete cell culture medium. After incubation for another 24 h, 10 μL of MTT solution containing 5 mg/mL of the dye were added to each well, and the cells were again incubated for 3 h. The medium was then removed and 100 μL of lysis buffer containing 10% (w/v) sodium dodecyl sulfate and 40% (v/v) dimethylformamide was added to each well. The plates were shaken for 10 min to destroy the cell structure and dissolve the blue formazan dye (Furchert et al., [2007]; Wehe et al., [2014]). Finally, the absorbance was measured at 590 nm using an automated microtiter plate reader (Infinite M200; Tecan, Männedorf, Switzerland). The percentage of viable cells in the untreated controls was compared to that for the various treatments. Experiments carried out with DAOY and UW228 cells followed a similar protocol except that these cells were incubated for 24 h with phenanthriplatin.
Data are presented as mean values ± SEM, with (n) referring to the number of wells. IC50 values defined as the concentration of platinum agent required to inhibit uptake of ASP^+ by 50% and EC50 values used to assess cell viability were obtained by sigmoidal concentration-response curve fitting using GraphPad Prism, Version 5.3 (GraphPad Software, San Diego, USA). […] For multiple comparisons, ANOVA with Bonferroni post-test was used. A P-value < 0.05 was considered statistically significant.

[2] = molecular target: T1, hOCT3 (Homo sapiens, UniProt O75751); assay: Inhibition of ASP+ uptake in HEK 293 cells expressing hOCT3; assay type: cell-based; details: HEK 293 hOCT3, 1 μM ASP+
T1 construct: expressed in transfected cells; gift of H. Koepsell
T1 sequence (O75751 1-556): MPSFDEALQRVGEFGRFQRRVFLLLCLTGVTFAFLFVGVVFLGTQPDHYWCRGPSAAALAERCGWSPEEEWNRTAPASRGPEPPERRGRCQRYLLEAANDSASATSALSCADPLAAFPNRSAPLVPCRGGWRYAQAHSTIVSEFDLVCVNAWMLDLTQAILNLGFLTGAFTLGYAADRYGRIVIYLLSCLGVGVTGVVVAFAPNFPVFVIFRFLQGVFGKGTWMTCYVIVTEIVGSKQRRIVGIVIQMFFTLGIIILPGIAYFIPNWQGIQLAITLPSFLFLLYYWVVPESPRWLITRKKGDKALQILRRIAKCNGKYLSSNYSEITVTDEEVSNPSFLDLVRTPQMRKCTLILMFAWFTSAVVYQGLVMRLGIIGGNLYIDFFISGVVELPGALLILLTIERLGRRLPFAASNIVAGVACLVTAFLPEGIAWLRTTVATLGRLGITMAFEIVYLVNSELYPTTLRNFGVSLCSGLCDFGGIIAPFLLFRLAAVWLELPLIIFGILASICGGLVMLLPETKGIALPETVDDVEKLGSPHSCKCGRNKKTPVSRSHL
Method: (§1) The interaction of phenanthriplatin with transporters for organic cations (OCT1-3, MATE1, and MATE2K) was investigated by measuring its effects on the uptake of the fluorescent organic cation 4-(4-dimethylamino)styryl-N-methylpyridinium (ASP^+). Microfluorometric measurements of ASP^+ uptake were performed with a fluorescence plate reader (Infinity 200, Tecan, Crailsheim, Germany; excitation at 465 nm, emission at 590 nm) as described previously for cultured HEK 293 cells (Wilde et al., [2009]). Before measurements, the culture medium in the wells of the 96 well microtiter plate containing HEK 293 cells was replaced by a HCO3- -free Ringer-like solution containing (in mM) NaCl 145, K2HPO4 1.6, KH2PO4 0.4, D-glucose 5, MgCl2 1, calcium gluconate 1.3, and pH adjusted to 7.4. Fluorescence was measured dynamically at 37°C in each well before and after ASP^+ addition to HCO3- -free Ringer-like solution, alone or together with increasing phenanthriplatin concentrations, and plotted versus time. ASP^+ (final concentration 1 or 10 μM for experiments with OCTs or MATEs, respectively) was added after the third sampling interval. Emission from the complete area of the well bottom was analyzed four times and averaged for each well. […] Background fluorescence was measured for each plate in wells with identical solutions containing no cells and subtracted from each well containing cells. […]

[3] = molecular target: T2, mOCT1 (Mus musculus, UniProt O08966); assay: Inhibition of ASP+ uptake in HEK 293 cells expressing mOCT1; assay type: cell-based, murine; details: HEK 293 mOCT1, 1 μM ASP+
T2 construct: expressed in transfected cells
T2 sequence (O08966 1-556): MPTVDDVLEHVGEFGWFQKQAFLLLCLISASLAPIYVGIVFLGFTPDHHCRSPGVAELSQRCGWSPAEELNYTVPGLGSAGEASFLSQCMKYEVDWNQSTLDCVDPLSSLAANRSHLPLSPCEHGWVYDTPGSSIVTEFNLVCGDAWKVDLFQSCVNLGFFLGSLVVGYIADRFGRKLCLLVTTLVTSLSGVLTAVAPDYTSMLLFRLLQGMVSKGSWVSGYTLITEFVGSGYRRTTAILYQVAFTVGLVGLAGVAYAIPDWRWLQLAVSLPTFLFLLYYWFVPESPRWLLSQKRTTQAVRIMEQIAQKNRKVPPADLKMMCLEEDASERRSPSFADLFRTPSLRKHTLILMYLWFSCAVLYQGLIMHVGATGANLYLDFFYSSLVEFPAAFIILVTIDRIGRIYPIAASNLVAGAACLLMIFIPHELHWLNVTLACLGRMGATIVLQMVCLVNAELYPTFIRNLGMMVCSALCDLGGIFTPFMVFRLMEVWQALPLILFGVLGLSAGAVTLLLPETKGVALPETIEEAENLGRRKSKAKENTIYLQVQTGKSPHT
Method: as §1

pEC50 ([1]; UW228, 24 h incubation, MTT): 5.55 | pIC50 [2]: 4.68 | logIC50 (logEC50) ± SEM for inhibition of ASP+ uptake [2]: −4.67 ± 0.07 | pIC50 [3]: 4.77 | logIC50 (logEC50) ± SEM for inhibition of ASP+ uptake [3]: −4.77 ± 0.22
Compound: N.N.[Cl][Pt+].c1ccc2c(c1)cnc1ccccc12 [phenanthriplatin, cis-[Pt(NH3)2Cl(phenanthridine)]^+]
Protection from phenanthriplatin toxicity by cimetidine (cell viability, MTT) ([1]; UW228, 24 h, 3 μM phenanthriplatin + 10-fold higher cimetidine): not in UW228 cells | logEC50 ± SEM for viability ([1]; UW228, 24 h incubation, MTT): −5.55 ± 0.03
